Source: US6888016B2, “Mixtures for stimulating glucose up-take” (Loders Croklaan USA LLC, priority 2001, dated 2005)

System: 3T3-L1 adipocytes
Experiment: Insulin stimulated glucose uptake (ISGU), [3H]2-deoxyglucose incorporation in differentiated adipocytes
Type: cell-based, Murine
Details: 3 days incubation; for increase in glucose uptake in combination with CLA over CLA alone: compound A in combination with CLA, 1 nM insulin, significantly higher than CLA alone, P<0.05 Students T-test, FIG. 2
Experimental: Murine (3T3-L1 cells; ATCC CL-173) were seeded into multi-well plates and incubated in growth medium (DMEM supplemented with 10% FCS, 2 mM L-glutamine, 100 iu/ml penicillin and 100 μg/ml streptomycin) at 37° C./5% CO2 until 2 days post-confluence (day 0). Differentiation was carried out approximately according to Iwata et al (Diabetes 2001 50: 1083-1092). Briefly, differentiation was induced by changing to growth medium containing 3-isobutyl-1-methylxanthine (0.5 mM), dexamethasone (0.25 μM) and 1 μM insulin for 3 days, and then growth medium containing 0.8 μM insulin for another 3 days. Finally cells were retained in serum free growth medium until ready for experimentation, typically cells were used between days 6-9.
Pine nut oil (PNO) and palm kernel oil (PKO) fatty acids were prepared by saponification of pine nut oil or palm kernel oil. PNO contains high levels of PUFAs, in particular high levels of pinolenic acid. PKO has high levels of medium chain fatty acids (C8-12). All samples were prepared as 1 mg/ml stocks in ethanol and diluted in media accordingly with the following exceptions. IGF-1 was prepared by initially dissolving in […], followed by the addition of 400 μl PBS supplemented with 1 mg/ml BSA. This was diluted with media to the correct concentration. Ascorbic acid, sodium vanadate and aspartame were made up in DMEM.
Differentiated adipocytes were incubated for a period of 3 days in DMEM (containing 2 mM L-glutamine, 100 iu/ml penicillin, 100 μg/ml streptomycin, 1 nM insulin and 10% FCS) supplemented with or without CLA and/or compound As. The cells were then washed three times with DMEM (containing 1 mM deoxyglucose). Insulin stimulated glucose uptake was carried out according to Iwata et al (Diabetes 2001 50: 1083-1092). Briefly, cells were stimulated with 1 nM insulin in Krebs Ringer Phosphate (KRP) and HEPES buffer [10 mM HEPES, 131.2 mM NaCl, 4.7 mM KCl, 2.5 mM CaCl2, 1.2 mM MgSO4, 2.5 mM sodium phosphate buffer, pH 7.4] with 1% BSA at 37° C. […] Radioactive incorporation was measured by scintillation counting of 100 μl of each cell lysate. […]

| Compound | increase in glucose uptake in combination with CLA over CLA alone | insulin stimulated glucose uptake (ISGU), effect of CLA alone (CLA fatty acids at 10 or 50 μg/ml, compared with control differentiated adipocytes, radiolabel incorporation (3H-DPM), FIG. 1) |
| --- | --- | --- |
| O=C1O[C@H]([C@@H](O)CO)C(O)=C1O [Vit C, Ascorbic acid] | 20% |  |
| Conjugated linoleic acid [CLA] |  | reduces ISGU compared with the control |
| IGF-1: IGF-1, purified or in natural extracts; compound A | 39% |  |
